Here are results for 2 compounds from US20080153858A1, “ANTITUMORIGENIC DRUG COMBINATION” (ABBOTT LABORATORIES, priority 2006, published 2008).

Marks after values point to notes of the source that are not given here.

Assay [1] deals with Calu-6 NSCLC xenograft. The experiment in a line: Calu-6 flank xenograft model, tumor growth delay. The format is in vivo, nu/nu mice. Here is the method: Female nu/nu mice (Charles River Labs.) were injected subcutaneously with 0.25 mL of 5×10^6 Calu-6 cells (1:1 with matrigel) on study day 0. The human Calu-6 cells were obtained from a tumor homogenate from previously inoculated donor mice. The cellular implantation site was the right thigh, and all mice were ear tagged. On day 10, tumors were size matched to approximately 170 mm^3 and were placed into the therapy groups outlined in the study design below. The tumors were measured with calipers 2-3 times per week after tumors were palpable. Tumor volume were calculated according to the formula V=L×W^2/2 (V: volume, mm^3; L: length, mm. W: width, mm). The mice were humanely euthanized when the tumor volumes reached a predetermined size. The study design was as follows:
ABT-751 was formulated in 1% HCl, 4% ethanol, and 95% D5W while pemetrexed was formulated in normal saline.
Study group treatments are defined in Table 1.

The subject of assay [2] is thymidine kinase minus human colon carcinoma xenograft (GC3 TK-). The experiment in a line: GC3 TK- flank xenograft model, tumor growth delay. The format is in vivo, nu/nu mice. Here is the method:
nu/nu female mice (Charles Rivers Labs) were injected subcutaneously with 0.2 mL of 5×10^6 GC3TK-100c3 cells (1:1 matrigel) on study day 0. […] The cellular implantation site was the right flank, and all mice were ear tagged. Tumors were size matched to 205 mm^3, and animals were placed into the therapy groups shown in the study design below (Table 3). The tumors were measured with calipers 2 times per week after tumors were palpable. The mice were humanely euthanized when the tumor volumes reached a predetermined size. The study design was as follows: [table]

Assay [3] has the same test system. The settings on record: Schultz, 1999; cited from earlier work.

As for `COc1ccc(S(=O)(=O)Nc2cccnc2Nc2ccc(O)cc2)cc1` [ABT-751, N-(2-((4-Hydroxyphenyl)amino)pyridin-3-yl)-4-methoxybenzenesulfonamide], the “Mean % TGD (tumor growth delay) increase compared to vehicle in time to 1.5 cc tumor” value is 18.0***^b % in assay [1] (Group 1: ABT-751 100 mg/kg p.o. Days 10-14 and 20-24, plus pemetrexed vehicle); 18.0*** % in assay [1] (Group 6: ABT-751 100 mg/kg p.o. Days 15-19 and 25-29, plus pemetrexed vehicle). The “Median % TGD (tumor growth delay) increase compared to vehicle in time to 0.75 cc tumor” value in assay [2] (Group 1: ABT-751 100 mg/kg p.o. Days 38-42 and 48-52, plus pemetrexed vehicle) worked out at 0.0%.
`Nc1nc2[nH]cc(CCc3ccc(C(=O)N[C@@H](CCC(=O)O)C(=O)O)cc3)c2c(=O)[nH]1` [pemetrexed]: the “Mean % TGD (tumor growth delay) increase compared to vehicle in time to 1.5 cc tumor” value is given as 11.1** % in assay [1] (Group 2: pemetrexed 150 mg/kg i.p. Days 10-14 and 20-24, plus ABT-751 vehicle); 5.6* % in assay [1] (Group 4: pemetrexed 150 mg/kg i.p. Days 15-19 and 25-29, plus ABT-751 vehicle). Further, the “Median % TGD (tumor growth delay) increase compared to vehicle in time to 0.75 cc tumor” value is recorded as 14.8% in assay [2] (Group 2: pemetrexed 150 mg/kg i.p. Days 38-42, plus ABT-751 vehicle) and 30.7*^b % in assay [2] (Group 3: pemetrexed 150 mg/kg i.p. Days 43-47, plus ABT-751 vehicle). In assay [3], the “sensitivity in the thymidine kinase-deficient GC3 model” value is “quite sensitive”.
